Measurements published in patent publication US6589993B2, “Treating vancomycin-intermediates and multiresistant staphylococci infection with thiamphenicol or a salt thereof” (Zambon Group S.p.A., priority 2000, dated 2003).
≈ marks a conversion by molar mass, not a printed value. Read-outs that look alike come from different tables or passages of the source. Each block holds one compound with its values, some of them ahead of it.

Legend:
[1] = tested on: S. aureus Met-R multiresistant strains; experiment: MIC determination (NCCLS broth microdilution), methicillin-resistant multiresistant S. aureus strains; assay type: cell-based, Staphylococcus aureus; conditions: for % susceptible at breakpoint: NCCLS (1999) breakpoints; for MIC / MIC50 / MIC90: Staphylococcus aureus; for MIC: antibiotype Oxa, Ery, read-out: MIC; for MIC50: read-out: MIC 50%; for MIC90: read-out: MIC 90%
Description: (§1) The MICs of thiamphenicol and of other antibiotics was obtained by using the method proposed by NCCLS (National Committee for Clinical Laboratory Standards, 1999).
(§2) Various antibiotic concentrations were added to bacteria in exponental growth (final inoculum 5×10^5 […]); dilution in Mb (cation-supplemented Mueller-Hinton broth) and distribution on a microplate by using an automatic diluting machine Biomek 1000 (Beckman, USA). MHb charged with 2% NaCl was used to test the methicillin activity.
(§3) The antibiotic concentration which hinders a visible growth after 18-24 hours of incubation at 37° C., was registered as MIC.
(§4) S. aureus ATCC 29213 was used as quality control strain.

[2] = tested on: S. aureus vancomycin-intermediates (VISA) Met-R strains; experiment: MIC determination (NCCLS broth microdilution), VISA Met-R strains; assay type: cell-based, Staphylococcus aureus; conditions: for MIC: antibiotype Oxa, Cip, Clin, Ery; for MIC Range / % susceptible at breakpoint: VISA (2) Met-R; for % susceptible at breakpoint: NCCLS (1999) breakpoints
Description: as §1, §2, §3, §4

Staphylococci = conditions: toward strains of Staphylococci; Kayser et al. 1974; cited from earlier work
[3] = Strain 30, Cip, Clin, Gm, SXT, Dox
[4] = Strain 32, Cip, Clin, Gm, SXT, Rif
[5] = Strain 44, Cip, Clin, Gm, Rif, Dox
[6] = Strain 45, Cip, Clin, Gm, Rif, Dox, Fos
[7] = Strain 50, Cip, Clin, Gm, Rif, Dox
[8] = Staphylococcus aureus, Strain 51 VISA, read-out: MIC

- MIC ([1]; Strain 1, Cip, Clin, Gm): 8 µg/mL (≈ 22.5 µM)
- MIC ([1]; Strain 2, Clin, Fos): > 64 µg/mL
- MIC ([1]; Strain 3, Cip, Clin, Gm): 16 µg/mL (≈ 44.9 µM)
- MIC ([1]; Strain 4, Cip, Gm): 8 µg/mL (≈ 22.5 µM)
- MIC ([1]; Strain 5, Cip, Clin): > 64 µg/mL
- MIC ([1]; Strain 6, Clin, Gm): > 64 µg/mL
- MIC ([1]; Strain 7, Cip, Gm): 16 µg/mL (≈ 44.9 µM)
- MIC ([1]; Strain 8, Cip, Clin): > 64 µg/mL
- MIC ([1]; Strain 9, Cip, Clin, Gm): 8 µg/mL (≈ 22.5 µM)
- MIC ([1]; Strain 10, Cip, Clin, Gm): 4 µg/mL (≈ 11.2 µM)
- MIC ([1]; Strain 11, Clin, Rif): > 64 µg/mL
- MIC ([1]; Strain 12, Cip, Clin): > 64 µg/mL
- MIC ([1]; Strain 13, Cip, Clin): 16 µg/mL (≈ 44.9 µM)
- MIC ([1]; Strain 14, Clin, Cip): 16 µg/mL (≈ 44.9 µM)
- MIC ([1]; Strain 15, Cip, Clin, Gm): 16 µg/mL (≈ 44.9 µM)
- MIC ([1]; Strain 16, Cip, Clin): 8 µg/mL (≈ 22.5 µM)
- MIC ([1]; Strain 17, Cip, Clin): 16 µg/mL (≈ 44.9 µM)
- MIC ([1]; Strain 18, Cip, Clin, Gm): > 64 µg/mL
- MIC ([1]; Strain 19, Cip, Clin, Gm): 16 µg/mL (≈ 44.9 µM)
- MIC ([1]; Strain 20, Cip, Clin, Gm): > 64 µg/mL
- MIC ([1]; Strain 21, Cip, Clin, Gm): > 64 µg/mL
- MIC ([1]; Strain 22, Cip, Clin): 16 µg/mL (≈ 44.9 µM)
- MIC ([1]; Strain 23, Cip, Clin, Gm): > 64 µg/mL
- MIC ([1]; Strain 24, Cip, Clin, Gm): > 64 µg/mL
- MIC ([1]; Strain 25, Cip, Clin, Gm): 16 µg/mL (≈ 44.9 µM)
- MIC ([1]; Strain 26, Cip, Clin, Fos, Gm): 16 µg/mL (≈ 44.9 µM)
- MIC ([1]; Strain 27, Cip, Clin, Fos, Gm): 16 µg/mL (≈ 44.9 µM)
- MIC ([1]; Strain 28, Cip, Clin, Gm): > 64 µg/mL
- MIC ([1]; Strain 29, Clin, Fos): 16 µg/mL (≈ 44.9 µM)
- MIC [1, 3]: 16 µg/mL (≈ 44.9 µM)
- MIC ([1]; Strain 31, Cip, Clin, Fox, Gm): 16 µg/mL (≈ 44.9 µM)
- MIC [1, 4]: > 64 µg/mL
- MIC ([1]; Strain 33, Cip, Clin, Gm): > 64 µg/mL
- MIC ([1]; Strain 34, Cip, Clin, Gm): > 64 µg/mL
- MIC ([1]; Strain 35, Cip, Clin, Gm): 16 µg/mL (≈ 44.9 µM)
- MIC ([1]; Strain 36, Cip, Clin, Fos): 16 µg/mL (≈ 44.9 µM)
- MIC ([1]; Strain 37, Cip, Clin, Fos, Gm): 16 µg/mL (≈ 44.9 µM)
- MIC ([1]; Strain 38, Cip, Gm): 8 µg/mL (≈ 22.5 µM)
- MIC ([1]; Strain 39, Cip, Clin, Fos, Gm): 16 µg/mL (≈ 44.9 µM)
- MIC ([1]; Strain 40, Cip, Clin, Gm): 16 µg/mL (≈ 44.9 µM)
- MIC ([1]; Strain 41, Cip, Clin): 16 µg/mL (≈ 44.9 µM)
- MIC ([1]; Strain 42, Cip, Clin, Gm): 8 µg/mL (≈ 22.5 µM)
- MIC ([1]; Strain 43, Cip, Clin, Gm): 16 µg/mL (≈ 44.9 µM)
- MIC [1, 5]: 16 µg/mL (≈ 44.9 µM)
- MIC [1, 6]: 16 µg/mL (≈ 44.9 µM)
- MIC ([1]; Strain 46, Clin, Fos): 16 µg/mL (≈ 44.9 µM)
- MIC ([1]; Strain 47, Cip, Clin, Gm): 8 µg/mL (≈ 22.5 µM)
- MIC ([1]; Strain 48, Cip, Clin): > 64 µg/mL
- MIC ([1]; Strain 49, Cip, Gm): 16 µg/mL (≈ 44.9 µM)
- MIC [1, 7]: > 64 µg/mL
- MIC50 ([1]; S. aureus (50) Met-R): 16 µg/mL (≈ 44.9 µM)
- MIC90 ([1]; S. aureus (50) Met-R): > 64 µg/mL
- activity (MIC) compared with cloramphenicol ([1]; VISA and multiresistant Staphylococcus aureus strains, in vitro): comparable to that as of cloramphenicol
- MIC [2, 8]: 16 µg/mL (≈ 44.9 µM)
- MIC ([2]; Strain 52 VISA): 16 µg/mL (≈ 44.9 µM)
- MIC Range [2]: 16 µg/mL (≈ 44.9 µM)
Compound: CS(=O)(=O)c1ccc([C@@H](O)[C@@H](CO)NC(=O)C(Cl)Cl)cc1 [Thiamphenicol, thiamphenicol]
- % susceptible at breakpoint ([1]; S. aureus (50) Met-R): 66%
- % susceptible at breakpoint [2]: 100%
- in vitro activity relative to chloramphenicol (times less active) (Staphylococci): 2 to 4 times

- MIC Range ([1]; S. aureus (50) Met-R): 4 to 64 µg/mL
- MIC ([1]; Strain 1, Cip, Clin, Gm): 4 µg/mL (≈ 12.4 µM)
- MIC ([1]; Strain 2, Clin, Fos): 64 µg/mL (≈ 198 µM)
- MIC ([1]; Strain 3, Cip, Clin, Gm): 4 µg/mL (≈ 12.4 µM)
- MIC ([1]; Strain 4, Cip, Gm): 4 µg/mL (≈ 12.4 µM)
- MIC ([1]; Strain 5, Cip, Clin): 64 µg/mL (≈ 198 µM)
- MIC ([1]; Strain 6, Clin, Gm): 64 µg/mL (≈ 198 µM)
- MIC ([1]; Strain 7, Cip, Gm): 8 µg/mL (≈ 24.8 µM)
- MIC ([1]; Strain 8, Cip, Clin): 64 µg/mL (≈ 198 µM)
- MIC ([1]; Strain 9, Cip, Clin, Gm): 8 µg/mL (≈ 24.8 µM)
- MIC ([1]; Strain 10, Cip, Clin, Gm): 4 µg/mL (≈ 12.4 µM)
- MIC ([1]; Strain 11, Clin, Rif): 64 µg/mL (≈ 198 µM)
- MIC ([1]; Strain 12, Cip, Clin): 64 µg/mL (≈ 198 µM)
- MIC ([1]; Strain 13, Cip, Clin): 8 µg/mL (≈ 24.8 µM)
- MIC ([1]; Strain 14, Clin, Cip): 8 µg/mL (≈ 24.8 µM)
- MIC ([1]; Strain 15, Cip, Clin, Gm): 8 µg/mL (≈ 24.8 µM)
- MIC ([1]; Strain 16, Cip, Clin): 8 µg/mL (≈ 24.8 µM)
- MIC ([1]; Strain 17, Cip, Clin): 8 µg/mL (≈ 24.8 µM)
- MIC ([1]; Strain 18, Cip, Clin, Gm): 64 µg/mL (≈ 198 µM)
- MIC ([1]; Strain 19, Cip, Clin, Gm): 8 µg/mL (≈ 24.8 µM)
- MIC ([1]; Strain 20, Cip, Clin, Gm): 64 µg/mL (≈ 198 µM)
- MIC ([1]; Strain 21, Cip, Clin, Gm): 64 µg/mL (≈ 198 µM)
- MIC ([1]; Strain 22, Cip, Clin): 8 µg/mL (≈ 24.8 µM)
- MIC ([1]; Strain 23, Cip, Clin, Gm): 64 µg/mL (≈ 198 µM)
- MIC ([1]; Strain 24, Cip, Clin, Gm): 64 µg/mL (≈ 198 µM)
- MIC ([1]; Strain 25, Cip, Clin, Gm): 8 µg/mL (≈ 24.8 µM)
- MIC ([1]; Strain 26, Cip, Clin, Fos, Gm): 8 µg/mL (≈ 24.8 µM)
- MIC ([1]; Strain 27, Cip, Clin, Fos, Gm): 8 µg/mL (≈ 24.8 µM)
- MIC ([1]; Strain 28, Cip, Clin, Gm): 64 µg/mL (≈ 198 µM)
- MIC ([1]; Strain 29, Clin, Fos): 8 µg/mL (≈ 24.8 µM)
- MIC [1, 3]: 8 µg/mL (≈ 24.8 µM)
- MIC ([1]; Strain 31, Cip, Clin, Fox, Gm): 8 µg/mL (≈ 24.8 µM)
- MIC [1, 4]: 64 µg/mL (≈ 198 µM)
- MIC ([1]; Strain 33, Cip, Clin, Gm): 64 µg/mL (≈ 198 µM)
- MIC ([1]; Strain 34, Cip, Clin, Gm): 64 µg/mL (≈ 198 µM)
- MIC ([1]; Strain 35, Cip, Clin, Gm): 8 µg/mL (≈ 24.8 µM)
- MIC ([1]; Strain 36, Cip, Clin, Fos): 8 µg/mL (≈ 24.8 µM)
- MIC ([1]; Strain 37, Cip, Clin, Fos, Gm): 8 µg/mL (≈ 24.8 µM)
- MIC ([1]; Strain 38, Cip, Gm): 8 µg/mL (≈ 24.8 µM)
- MIC ([1]; Strain 39, Cip, Clin, Fos, Gm): 8 µg/mL (≈ 24.8 µM)
- MIC ([1]; Strain 40, Cip, Clin, Gm): 8 µg/mL (≈ 24.8 µM)
- MIC ([1]; Strain 41, Cip, Clin): 8 µg/mL (≈ 24.8 µM)
- MIC ([1]; Strain 42, Cip, Clin, Gm): 8 µg/mL (≈ 24.8 µM)
- MIC ([1]; Strain 43, Cip, Clin, Gm): 8 µg/mL (≈ 24.8 µM)
- MIC [1, 5]: 8 µg/mL (≈ 24.8 µM)
- MIC [1, 6]: 8 µg/mL (≈ 24.8 µM)
- MIC ([1]; Strain 46, Clin, Fos): 8 µg/mL (≈ 24.8 µM)
- MIC ([1]; Strain 47, Cip, Clin, Gm): 8 µg/mL (≈ 24.8 µM)
- MIC ([1]; Strain 48, Cip, Clin): 64 µg/mL (≈ 198 µM)
- MIC ([1]; Strain 49, Cip, Gm): 8 µg/mL (≈ 24.8 µM)
- MIC [1, 7]: 64 µg/mL (≈ 198 µM)
- MIC50 ([1]; S. aureus (50) Met-R): 8 µg/mL (≈ 24.8 µM)
- MIC90 ([1]; S. aureus (50) Met-R): 64 µg/mL (≈ 198 µM)
- MIC [2, 8]: 8 µg/mL (≈ 24.8 µM)
- MIC ([2]; Strain 52 VISA): 8 µg/mL (≈ 24.8 µM)
- MIC Range [2]: 8 µg/mL (≈ 24.8 µM)
Compound: O=C(N[C@H](CO)[C@H](O)c1ccc([N+](=O)[O-])cc1)C(Cl)Cl [Cloramphenicol, cloramphenicol]
- % susceptible at breakpoint ([1]; S. aureus (50) Met-R): 66%
- % susceptible at breakpoint [2]: 100%
